Assay results reported in patent US8952150B2, “Prostaglandin transporter inhibitors and uses thereof” (Albert Einstein College of Medicine of Yeshiva University, priority 2009, dated 2015).

Target: rat PGT (Rattus norvegicus (Rat), UniProt Q00910)
Assay: [3H]PGE2 uptake inhibition in MDCK cells stably transfected with rat PGT (percent inhibition and IC50)
Format: cell-based
Settings: for Inh (% of Ctl) 0.1 μM: 0.1 μM compound; for Inh (% of Ctl) 0.1 μM / Inh (% of Ctl) 0.5 μM / Inh (% of Ctl) 1 μM / Inh (% of Ctl) 10 μM / Inh (% of Ctl) 5 μM / Inh (% of Ctl) 2.5 μM: inhibition of [3H]PGE2 uptake; for Inh (% of Ctl) 0.5 μM: 0.5 μM compound; for Inh (% of Ctl) 1 μM: 1 μM compound; for IC50: [3H]PGE2 uptake, MDCK cells stably transfected with rat PGT; for Inh (% of Ctl) 10 μM: 10 μM compound; for Inh (% of Ctl) 5 μM: 5 μM compound; for Inh (% of Ctl) 2.5 μM: 2.5 μM compound
Method: MDCK cells stably transfected with rat PGT (Endo et al., 2002) were seeded at 15-20% confluence on 24-well plates. The day on which the cells were seeded was considered day 1. PGE2 uptake experiments were conducted on day 4. All of the PGE2 uptake experiments were conducted at room temperature. On day 4, cells were washed twice with Waymouth buffer (135 mM NaCl, 13 mM H-Hepes, 13 mM Na-Hepes, 2.5 mM CaCl2, 1.2 mM MgCl2, 0.8 mM MgSO4, 5 mM KCl, and 28 mM D-glucose). Then 200 μL of Waymouth buffer containing [^3H]PGE2 (purchased from Perkin Elmer) was added to each well. At the designed time, the uptake of [^3H]PGE2 was stopped by aspiration of uptake buffer; this was followed by immediate washing twice with 500 μL of chilled Waymouth buffer. Cells were then lysed with 100 μL lysis buffer containing 0.25% SDS and 0.05 N NaOH. 1.5 mL of scintillation solution was added to each well, and intracellular [^3H]PGE2 was counted by MicroBeta Counter.
For preliminary testing of the compounds, 20 μL of Waymouth buffer containing the compound was added to each well; this was immediately followed by the addition of 180 μL of Waymouth buffer containing [^3H]PGE2. In each well, the total volume of uptake medium was 200 μL. Organic compounds were first dissolved in EtOH and then diluted in Waymouth buffer. The percent inhibition of [^3H]PGE2 uptake by compounds was calculated as [(uptakevehicle−uptakeinhibitor)÷(uptakevehicle)]×100.
IC50 was calculated by fitting an equation of y=m1−m1*(m0/(m2+m0)).

Compound	Inh (% of Ctl) 0.1 μM	Inh (% of Ctl) 0.5 μM	Inh (% of Ctl) 1 μM	IC50 [nM]	Inh (% of Ctl) 10 μM	Inh (% of Ctl) 5 μM	Inh (% of Ctl) 2.5 μM
O=C(NCCOCCOCCNc1nc(Nc2ccc(C(=O)NCc3ccc(F)cc3)cc2)nc(Nc2ccc(O)c(C(=O)O)c2)n1)c1ccccc1 [compound 146]	28.5 % of Ctl	59.8 % of Ctl	70.4 % of Ctl	44.8			
O=C(NCCOCCOCCNc1nc(Nc2ccccc2)nc(Nc2ccc(-c3nnn[nH]3)cc2)n1)c1ccccc1 [compound 54]			33.7 % of Ctl		52.2 % of Ctl		
N[C@@H](C(=O)NCCOCCNc1nc(Nc2ccc(O)cc2)nc(Nc2ccc(C(=O)NCc3ccccc3)cc2)n1)c1ccccc1 [compound 132]	15.0 % of Ctl	22.1 % of Ctl	32.4 % of Ctl				
O=C(NCCOCCOCCNc1nc(Nc2ccc(O)cc2)nc(Nc2ccc(C(=O)NCc3ccc(C(F)(F)F)cc3)cc2)n1)c1ccccc1 [compound 113]	36.8 % of Ctl	49.2 % of Ctl				92.4 % of Ctl	84.1 % of Ctl
O=S(=O)(NCCOCCOCCNc1nc(Nc2ccccc2)nc(Nc2ccc(O)cc2)n1)c1ccccc1 [compound 38]			22.8 % of Ctl		63.0 % of Ctl		
O=C(NCCOCCOCCNc1nc(Nc2ccccc2)nc(Nc2ccc(OCc3ccccc3)cc2)n1)c1ccccc1 [compound 2]		1.6 % of Ctl				6.5 % of Ctl	
O=C(O)Cc1ccc(Nc2nc(NCCOCCOCCNC(=O)c3ccccc3)nc(Nc3ccccc3)n2)cc1 [compound 57]			27.4 % of Ctl	5570	56.6 % of Ctl	29.5 % of Ctl	
COCCOCCOCCNc1nc(NCCOCCOCCNC(=O)c2ccccc2)nc(Nc2ccc(OCc3ccccc3)cc2)n1 [compound 7]		4.8 % of Ctl				22.5 % of Ctl	
O=C(CCCCCCNc1nc(Nc2ccccc2)nc(Nc2ccc(O)cc2)n1)NCc1ccccc1 [compound 97]			13.1 % of Ctl		30.8 % of Ctl	19.4 % of Ctl	
O=C(NCCOCCOCCNc1nc(Nc2ccc(O)cc2)nc(NC2CCCCC2)n1)c1ccccc1 [compound 27]		28.2 % of Ctl				53.8 % of Ctl	
O=C(NCCOCCOCCNc1nc(O)nc(Nc2ccc(O)cc2)n1)c1ccccc1 [compound 12]		2.8 % of Ctl				4.7 % of Ctl	
NCCOCCOCCNc1nc(Nc2ccccc2)nc(Nc2ccc(O)cc2)n1 [compound 45]			5.0 % of Ctl		12.9 % of Ctl		
COC(=O)Cc1ccc(Nc2nc(NCCOCCOCCNC(=O)c3ccccc3)nc(Nc3ccccc3)n2)cc1 [compound 60]			7.2 % of Ctl		34.5 % of Ctl		
O=C(NCc1ccc(F)cc1)c1ccc(Nc2nc(Nc3ccc(O)cc3)nc(Nc3ccc(C(=O)NCc4ccc(F)cc4)cc3)n2)cc1 [compound 148]	8.4 % of Ctl	12.9 % of Ctl	20.7 % of Ctl				
O=C(NCCOCCNc1nc(Nc2ccccc2)nc(Nc2ccc(O)cc2)n1)c1ccccc1 [compound 59]			36.8 % of Ctl	2460	75.8 % of Ctl		
O=C(O)CCCCCCNc1nc(Nc2ccccc2)nc(Nc2ccc(O)cc2)n1 [compound 52]			0.1 % of Ctl		1.8 % of Ctl		
CN(C)c1nc(NCCOCCOCCNC(=O)c2ccccc2)nc(Nc2ccc(OCc3ccccc3)cc2)n1 [compound 5]		6.6 % of Ctl				9.6 % of Ctl	
O=C(NCCOCCOCCNc1nc(Nc2ccc(O)cc2)nc(Nc2ccc(N3CCOCC3)cc2)n1)c1ccccc1 [compound 24]		1.7 % of Ctl				9.2 % of Ctl	
COCCOCCOCCNc1nc(NCCOCCOCCNC(=O)c2ccccc2)nc(Nc2ccc(O)cc2)n1 [compound 11]		11.4 % of Ctl				29.9 % of Ctl	

Other lines, results leading:

Inh (% of Ctl) 0.1 μM	Inh (% of Ctl) 0.5 μM	Inh (% of Ctl) 1 μM	IC50 [nM]	Inh (% of Ctl) 10 μM	Inh (% of Ctl) 5 μM	Inh (% of Ctl) 2.5 μM	Compound
	15.0 % of Ctl				70.8 % of Ctl		CN(Cc1ccccc1)C(=O)c1ccc(Nc2nc(NCCOCCOCCNC(=O)c3ccccc3)nc(Nc3ccc(O)cc3)n2)cc1 [compound 68]
	10.6 % of Ctl				35.9 % of Ctl		CNC(=O)c1ccc(Nc2nc(NCCOCCOCCNC(=O)c3ccccc3)nc(Nc3ccc(O)cc3)n2)cc1 [compound 14]
		26.1 % of Ctl		78.25 % of Ctl			O=C(NCCOCCOCCNc1nc(Nc2ccccc2)nc(Nc2ccc(O)cc2)n1)c1ccc(F)cc1 [compound 30]
68.4 % of Ctl	64.8 % of Ctl				93.1 % of Ctl	68.8 % of Ctl	O=C(NCCOCCOCCNc1nc(Nc2ccc(O)cc2)nc(Nc2ccc(C(=O)NCc3ccccc3Cl)cc2)n1)c1ccccc1 [compound 106]
81.3 % of Ctl	61.8 % of Ctl		23.7		89.4 % of Ctl	77.1 % of Ctl	O=C(NCCOCCOCCNc1nc(Nc2ccc(O)cc2)nc(Nc2ccc(C(=O)NCc3ccc(F)cc3)cc2)n1)c1ccccc1 [compound 99]
45.0 % of Ctl	51.6 % of Ctl				82.0 % of Ctl	56.9 % of Ctl	COC(=O)[C@@H](NC(=O)c1ccc(Nc2nc(NCCOCCOCCNC(=O)c3ccccc3)nc(Nc3ccc(O)cc3)n2)cc1)c1ccccc1 [compound 74]
	7.0 % of Ctl	32.4 % of Ctl	4850	81.5 % of Ctl	67.6 % of Ctl		O=C(NCCOCCOCCNc1nc(Nc2ccccc2)nc(Nc2ccc(O)cc2)n1)c1ccccc1 [compound 4]
22.3 % of Ctl	47.0 % of Ctl	74.3 % of Ctl					O=C(NCCOCCOCCNc1nc(Nc2ccc(O)cc2)nc(Nc2ccc(C(=O)NCc3ccc(F)cc3F)cc2)n1)c1ccccc1 [compound 131]
41.1 % of Ctl	56.4 % of Ctl				86.0 % of Ctl	57.6 % of Ctl	O=C(NCCOCCOCCNc1nc(Nc2ccc(O)cc2)nc(Nc2ccc(C(=O)NCc3ccc(Cl)cc3Cl)cc2)n1)c1ccccc1 [compound 100]
	0.7 % of Ctl				57.2 % of Ctl	21.8 % of Ctl	O=C(NCCOCCOCCNc1nc(Nc2ccc(O)cc2)nc(Nc2ccc(C(=O)N[C@H](C(=O)O)c3ccccc3)cc2)n1)c1ccccc1 [compound 80]
60.8 % of Ctl	72.1 % of Ctl		620		88.0 % of Ctl	84.0 % of Ctl	O=C(NCCOCCOCCNc1nc(Nc2ccc(O)cc2)nc(Nc2ccc(C(=O)NCc3ccc(Cl)cc3)cc2)n1)c1ccccc1 [compound 91]
54.4 % of Ctl	76.8 % of Ctl						O=C(NCCOCCOCCNc1nc(Nc2ccc(O)cc2)nc(Nc2ccc(C(=O)NCC3CCCCC3)cc2)n1)c1ccccc1 [compound 115]
	38.3 % of Ctl				83.7 % of Ctl	62.2 % of Ctl	O=C(NCCOCCOCCNc1nc(Nc2ccc(O)cc2)nc(Nc2ccc(C(=O)Nc3ccccc3)cc2)n1)c1ccccc1 [compound 103]
	17.5 % of Ctl				49.4 % of Ctl	32.2 % of Ctl	O=C(O)c1ccc(CNC(=O)c2ccc(Nc3nc(NCCOCCOCCNC(=O)c4ccccc4)nc(Nc4ccc(O)cc4)n3)cc2)cc1 [compound 112]
	41.9 % of Ctl				88.0 % of Ctl	65.7 % of Ctl	Cc1ccc(CNC(=O)c2ccc(Nc3nc(NCCOCCOCCNC(=O)c4ccccc4)nc(Nc4ccc(O)cc4)n3)cc2)cc1 [compound 102]
		34.8 % of Ctl	1300	84.1 % of Ctl			COC(=O)CCCCCCNC(=O)c1ccc(Nc2nc(NCCOCCOCCNC(=O)c3ccccc3)nc(Nc3ccc(O)cc3)n2)cc1 [compound 43]
		65.0 % of Ctl	760	77.5 % of Ctl			CCCCCCNC(=O)c1ccc(Nc2nc(NCCOCCOCCNC(=O)c3ccccc3)nc(Nc3ccc(O)cc3)n2)cc1 [compound 44]
